Legend:
tumor = conditions: bio-distribution studies; cited from earlier work
PC-3 prostate cell line = assay: Uptake of [F-18]-labeled compounds into tumor cells; format: cell-based; conditions: 5×10^6 cells, 0.5 MBq, time point not given
Experimental: (§1) The uptake of [F-18]-labeled compounds was investigated by incubating 5×10^6 cells in 350 μl incubation buffer with 0.5 MBq [F-18]-labeled compound and taking aliquots at the various time points. The aliquots were transferred into oil, centrifuged shortly to separate cells from free compounds. The tubes were frozen, the cell pellet in the tip of the tube was cut off and radioactivity was measured in a gamma counter.

melanoma cell line A375 = assay: as above; format: cell-based; conditions: 5×10^6 cells, 0.5 MBq, time point not given
Experimental: as §1

[1] = tested on: lung cancer cell line A549; assay: as above; format: cell-based; conditions: 5×10^6 cells, 0.5 MBq, time point not given
Experimental: as §1

[2] = tested on: colon cancer cell line HCT-116; assay: as above; format: cell-based; conditions: 5×10^6 cells, 0.5 MBq, time point not given
Experimental: as §1

[3] = tested on: DU-145 prostate cell line; assay: as above; format: cell-based; conditions: 5×10^6 cells, 0.5 MBq, time point not given
Experimental: as §1

[4] = tested on: tumor cells lines A375, PC-3, HCT-116, A549 and DU-145; assay: Time dependent uptake of [F-18]-labeled compounds, all cell lines together; format: cell-based
Experimental: as §1
FIG. 7: Time dependent uptake of [F-18]-Fluoroethyl-Choline (FE-Ch) into the tumor cells lines A375, PC-3, HCT-116, A549 and DU-145.
FIG. 8: Time dependent uptake of [F-18]-Fluoroethyl-N-Methyl-Ethanolamine into the tumor cells lines A375, PC-3, HCT-116, A549 and DU-145.
FIG. 9: Time dependent uptake of [F-18]-Fluoroethyl-N-Ethyl-Ethanolamine into the tumor cells lines A375, PC-3, HCT-116, A549 and DU-145.
FIG. 10: Time dependent uptake of [F-18]-Fluoropropyl-N-Methyl-Ethanolamine into the tumor cells lines A375, PC-3, HCT-116, A549 and DU-145.

| Compound | tumor uptake in bio-distribution (tumor) | uptake (PC-3 prostate cell line) [%] | uptake (melanoma cell line A375) [%] | uptake [1] [%] | uptake [2] [%] | uptake [3] [%] | maximum value of uptake reached after 60 min ([4]; after 60 min, all cell lines) | course of uptake over time ([4]; over the 60 minutes investigated) | uptake after 30 min ([4]; after 30 min, across the cell lines (FIG. 8)) |
| --- | --- | --- | --- | --- | --- | --- | --- | --- | --- |
| [C-14]dimethyl-ethanolamine | tumor uptake |  |  |  |  |  |  |  |  |
| [C-14]ethanolamine [[C-14] derivative of ethanolamine (1)] | tumor uptake |  |  |  |  |  |  |  |  |
| C[N+](C)(CCO)CC[18F] [FE-Ch, [F-18]-Fluoroethyl-Choline] |  | 6.5 | 4 | 4 | 4 | 3 | 5-10% | slowly linear increasing |  |
| CN(CCO)CC[18F] [[F-18]-Fluoroethyl-N-Methyl-Ethanolamine, [F-18]2-[(2-Fluoro-ethyl)-methyl-amino]-ethanol] |  | 25.5 | 22 | 17 | 29 | 20.5 |  |  | 17-30% |

From patent publication US20090130020A1, “DIAGNOSTIC AGENTS FOR POSITRON EMISSION IMAGING USING F-18 RADIO-LABELED AMINO-ALCOHOLS” (priority 2007, published 2009)
